In patent EP0004335A2, “Prostacyclin analogs, process and intermediates for their preparation and their use as medicines” (HOECHST AKTIENGESELLSCHAFT, priority 1978, dated 1979) one finds IC50 data, which are given here for 3 compounds.

pIC50: −log10 of the molar value.

The test system of the test is durch Arachidonsäure in Humanblut (in vitro) induzierten Thrombocytenaggregation. As to the kind of experiment: Inhibition of arachidonic acid-induced platelet aggregation in human blood (in vitro). It counts as cell-based. The note with it: Konzentration, die eine Aggregation von 50% der vorhandenen Thrombocyten verhindert. An excerpt:
Die Thrombocyten aggregationshemmende Wirkung der erfindungsgemäßen Verbindungen wurde an der durch Arachidonsäure in Humanblut (in vitro) induzierten Thrombocytenaggregation ermittelt. In der folgenden Tabelle ist die Konzentration an dem jeweiligen Prostacyclin-Derivat angegeben, die eine Aggregation von 50% der vorhandenen Thrombocyten verhindert (IC50).
A word on the pIC50: it is the negative decadic logarithm of the IC50, by convention in mol/L. In turn, `COCCC(C)(C)C(O)C=CC1C(O)CC2OC(=CCCCC(=O)O)CC21` (stereo not drawn) [Beispiel 3 a), Kaliumsalz des 16,16-Dimethyl-19-oxa-PGI2] showed a pIC50 of 5.92.

The compound `COC(=O)CCCC=C1CC2C(CC(O)C2C=CC(O)C(C)(C)OC2CCCCC2)O1` (stereo not drawn) [Beispiel 2 e), 16-Cyclohexyloxy-16-methyl-18,19-20-trinor-PGI -methylester] gave a pIC50 of 5.00.

`CCOCC(C)(C)C(O)C=CC1C(O)CC2OC(=CCCCC(=O)O)CC21` (stereo not drawn) [Beispiel 3 b), Natriumsalz des 16,16-Dimethyl-18-oxa-PGI2] showed a pIC50 of 6.27.
